Assay results as given in ChEMBL document CHEMBL5113492, “Design, synthesis, and biological evalution of bifunctional inhibitors against Hsp90-HDAC6 interplay” (Eur J Med Chem, 2022).
Active and inactive are the calls of the source. No cut-off for these calls is given here.

What was measured:
[1] = Toxicity in NSG mouse xenografted with human NCI-H1975 cells assessed as change in structure of retina at 50 mg/kg,ip measured after 6 weeks by H and E staining based assay; format: organism-based; conditions: in vivo, 1008 h
[2] = target: T1, Protein deacetylase HDAC6 (Homo sapiens) (UniProt Q9UBN7); assay: Inhibition of HDAC6 in human NCI-H1975 cells assessed as increase in acetylation of alpha tubulin at 1 uM incubated for 24 hrs by western blot analysis; format: cell-based
T1 sequence (whole entry): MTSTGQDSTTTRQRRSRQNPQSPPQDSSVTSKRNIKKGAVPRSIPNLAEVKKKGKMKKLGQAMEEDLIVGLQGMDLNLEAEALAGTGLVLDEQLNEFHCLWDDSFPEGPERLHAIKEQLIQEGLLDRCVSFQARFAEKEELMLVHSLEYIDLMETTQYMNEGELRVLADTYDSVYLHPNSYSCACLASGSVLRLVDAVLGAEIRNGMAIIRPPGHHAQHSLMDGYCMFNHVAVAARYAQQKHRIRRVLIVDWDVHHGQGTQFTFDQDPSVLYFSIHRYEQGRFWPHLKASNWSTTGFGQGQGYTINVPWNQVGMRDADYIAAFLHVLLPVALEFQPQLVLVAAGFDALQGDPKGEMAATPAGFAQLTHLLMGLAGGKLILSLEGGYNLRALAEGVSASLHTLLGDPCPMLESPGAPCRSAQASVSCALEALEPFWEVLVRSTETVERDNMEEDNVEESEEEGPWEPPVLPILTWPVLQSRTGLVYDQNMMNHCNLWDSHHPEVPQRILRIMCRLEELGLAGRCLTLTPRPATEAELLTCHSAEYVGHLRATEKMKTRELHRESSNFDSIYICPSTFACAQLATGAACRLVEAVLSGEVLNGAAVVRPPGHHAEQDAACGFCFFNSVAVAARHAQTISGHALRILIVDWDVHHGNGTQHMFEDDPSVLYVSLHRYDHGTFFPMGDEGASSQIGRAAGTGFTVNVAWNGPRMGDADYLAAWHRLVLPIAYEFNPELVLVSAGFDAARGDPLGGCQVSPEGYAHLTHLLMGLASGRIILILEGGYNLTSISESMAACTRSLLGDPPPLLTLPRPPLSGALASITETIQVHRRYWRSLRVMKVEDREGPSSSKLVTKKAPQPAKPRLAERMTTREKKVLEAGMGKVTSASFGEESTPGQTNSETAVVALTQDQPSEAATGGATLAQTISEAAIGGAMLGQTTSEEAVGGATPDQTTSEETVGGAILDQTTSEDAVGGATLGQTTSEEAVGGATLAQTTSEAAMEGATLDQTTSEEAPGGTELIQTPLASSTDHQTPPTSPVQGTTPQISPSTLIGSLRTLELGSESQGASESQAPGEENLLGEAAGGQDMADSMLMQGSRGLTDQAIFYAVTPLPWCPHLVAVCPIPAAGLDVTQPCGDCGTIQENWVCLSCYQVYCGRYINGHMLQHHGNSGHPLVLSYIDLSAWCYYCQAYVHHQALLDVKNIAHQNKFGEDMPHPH

[3] = target: T2, Heat shock protein HSP90 (Homo sapiens) (UniProt P07900+P08238); assay: Inhibition of HSP90 in human NCI-H1975 cells assessed as upregulation of HSP70 expression at 2 uM incubated for 24 hrs by western blot analysis; format: cell-based
[4] = Toxicity in NSG mouse xenografted with human NCI-H1975 cells assessed as histological abnormalities in ocular region at 50 mg/kg,ip measured after 6 weeks by H and E staining based assay; format: organism-based; conditions: in vivo, 1008 h
[5] = target: T2, Heat shock protein HSP90 (Homo sapiens); assay: Inhibition of HSP90 in human NCI-H1975 cells assessed as downregulation of Met expression at 0.05 to 2 uM incubated for 24 hrs by western blot analysis; format: cell-based; conditions: dose 0.05-2 µM, DDE = dose-dependent effect
[6] = test system: Mus musculus; assay: In vivo inhibition of HDAC1 in human NCI-H1975 cells xenografted with NSG mouse assessed as increase in acetylation of Histone H3 at 25 mg/kg,ip measured after 6 weeks by immunohistochemistry analysis; format: functional, organism-based
[7] = target: T2, Heat shock protein HSP90 (Homo sapiens); assay: Inhibition of HSP90 in human NCI-H1975 cells assessed as downregulation of CDK-4 expression at 2 uM incubated for 24 hrs by western blot analysis; format: cell-based
[8] = target: T1, Protein deacetylase HDAC6 (Homo sapiens); assay: Inhibition of HDAC6 in human NCI-H1975 cells assessed as increase in acetylation of alpha tubulin at 1 uM incubated for 24 hrs by DAPI staining based immunofluorescence microscopy; format: cell-based
[9] = test system: NCI-H1975; assay: Induction of apoptosis in human NCI-H1975 cells assessed as early apoptotic cells at 2 uM incubated for 24 hrs by Annexin-V/propidium iodide staining based flow cytometry analysis; format: functional
[10] = test system: Mus musculus; assay: In vivo inhibition of HDAC1 in human NCI-H1975 cells xenografted with NSG mouse assessed as increase in acetylation of Histone H3 at 50 mg/kg,ip measured after 6 weeks by immunohistochemistry analysis; format: functional, organism-based
[11] = target: T1, Protein deacetylase HDAC6 (Homo sapiens); assay: Inhibition of HDAC6 in human NCI-H1975 cells assessed as downregulation of HDAC6 expression at 0.05 to 2 uM incubated for 24 hrs by western blot analysis; format: cell-based; conditions: dose 0.05-2 µM, DDE = dose-dependent effect

Compound: CC(C)c1cc(C(=O)N(C)Cc2ccc(C(=O)NO)cc2)c(O)cc1O
- Activity [1]: Non-Toxic
- inhibition [2]: Active
- inhibition [3]: Active
- Activity [4]: Non-Toxic
- inhibition [5]: Dde
- inhibition [6]: Active
- inhibition [7]: Active
- inhibition [8]: Active
- Activity [9]: 16.78%
- inhibition [10]: Active
- inhibition [11]: Dde
